Consider three substances from publication PMC3118037 (International journal for parasitology, 2011).

Assay [1] concerns dispersed schistosome muscle fibres. The settings on record: ref Day et al., 1997; cited from earlier work.
Assay [2] has the same test system.

In the case of YIRF-OH, the “effect on individual / dispersed schistosome muscle cells (fibres)” value in assay [1] was “lack of effect”.
On to YIRFamide, for which the “effect on individual / dispersed schistosome muscle cells (fibres)” value in assay [1] is on record as “potent myoexcitatory effect”.
For the substance GFVRIamide, in assay [2], the “activity in isolated muscle cell assays” value is on record as “lacked measurable activity”.
